{"source": "patent EP4768487A1", "about": "“FUSED LACTAM RING COMPOUND AND USE THEREOF” (Chengdu Zenitar Biomedical Technology Co., Ltd., priority 2023, dated 2025)", "key": {"[1]": {"system": "MDA-MB-436 breast cancer subcutaneous xenograft tumor model", "assay": "In vivo pharmacodynamic study of compound 53 in MDA-MB-436 subcutaneous xenograft tumor model", "parameters": "species or system NOD/SCID mice", "conditions": "oral once daily, 30 days; for inhibitory effects on tumor growth (in words): compared to blank control"}, "[2]": {"target": "T1, PARP1 (Homo sapiens, UniProt P09874)", "T1 construct": "purchased BPS 80501", "T1 sequence (P09874 whole entry)": "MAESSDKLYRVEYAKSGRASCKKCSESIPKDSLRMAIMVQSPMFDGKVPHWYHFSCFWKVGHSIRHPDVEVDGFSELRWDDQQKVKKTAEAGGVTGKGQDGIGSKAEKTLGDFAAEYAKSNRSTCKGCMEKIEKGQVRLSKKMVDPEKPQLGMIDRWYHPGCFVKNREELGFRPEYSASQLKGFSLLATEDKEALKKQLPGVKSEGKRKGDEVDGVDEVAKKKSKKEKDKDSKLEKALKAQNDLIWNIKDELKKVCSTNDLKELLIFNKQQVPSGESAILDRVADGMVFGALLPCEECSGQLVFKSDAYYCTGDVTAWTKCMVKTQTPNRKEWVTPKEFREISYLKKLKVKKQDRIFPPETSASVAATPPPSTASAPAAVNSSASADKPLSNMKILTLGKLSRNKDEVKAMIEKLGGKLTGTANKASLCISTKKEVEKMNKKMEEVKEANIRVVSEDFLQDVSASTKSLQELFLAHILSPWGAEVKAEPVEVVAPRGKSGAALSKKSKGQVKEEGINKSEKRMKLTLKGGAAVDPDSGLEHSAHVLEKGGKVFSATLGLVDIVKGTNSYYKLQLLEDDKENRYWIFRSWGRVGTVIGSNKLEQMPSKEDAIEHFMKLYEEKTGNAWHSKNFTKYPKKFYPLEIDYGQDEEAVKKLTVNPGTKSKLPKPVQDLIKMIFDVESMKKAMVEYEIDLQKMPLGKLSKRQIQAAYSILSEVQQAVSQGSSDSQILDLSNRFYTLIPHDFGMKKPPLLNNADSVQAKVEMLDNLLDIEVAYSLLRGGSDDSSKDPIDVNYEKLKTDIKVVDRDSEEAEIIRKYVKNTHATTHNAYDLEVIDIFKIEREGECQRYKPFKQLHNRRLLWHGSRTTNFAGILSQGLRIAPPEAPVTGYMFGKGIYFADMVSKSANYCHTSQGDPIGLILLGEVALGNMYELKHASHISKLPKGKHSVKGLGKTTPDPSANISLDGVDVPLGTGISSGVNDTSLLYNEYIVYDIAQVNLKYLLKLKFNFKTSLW", "assay": "PARP1 enzyme assay (histone-coated plate, chemiluminescence)", "type": "biochemical", "conditions": "PARP1 0.02 nM, DNA 0.8 nM, NAD+ 3.5 µM; read-out: PARP-1 IC50"}, "[3]": {"system": "BRCA-mutated MDA-MB-436 cells", "assay": "Anti-proliferative activity against cells (CCK8): MDA-MB-436", "type": "cell-based", "conditions": "Homo sapiens, 72 h + 96 h culture"}, "[4]": {"system": "BRCA wild-type DLD-1 cells", "assay": "Anti-proliferative activity against cells (CCK8): DLD-1", "type": "cell-based", "conditions": "Homo sapiens, 72 h + 96 h culture", "how_it_was_run": "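DLD-1 cells (1000/well) in RPMI-1640 with 10% FBS, treated 24 h after plating with PARPi at 0, 1 or 10 µM final. Cultured 72 h, medium exchanged with re-added PARPi, then a further 96 h; read-out by CCK8.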"}, "[5]": {"assay": "Pharmacokinetic evaluation in Balb/c mice", "type": "in vivo", "conditions": "1mg/kg, PO; for AUC(0-t) / Cmax / half-life: male, mouse, plasma", "description": "Experimental objective: To understand the pharmacokinetic profiles of the compounds. Experimental basis: Technical guidelines for non-clinical pharmacokinetic studies of chemical drugs, 2014.\nExperimental scheme: The pharmacokinetic profiles of the compounds were investigated by intravenous administration (1 mg·kg^-1) and intragastric administration (1 mg·kg^-1) in Balb/c mice.\nSample preparation: About 0.2 mg of the compound was weighed out and dissolved in 10 µL of DMSO, and then a sodium chloride solution for injection was added to prepare a 0.1 mg·mL^-1 compound solution for later administration.\nThree of the mice were subjected to intravenous administration (IV) at 1 mg·kg^-1, while the other three were subjected to intragastric administration (PO) at 1 mg·kg^-1. About 0.05 mL of blood was collected at 5 min, 15 min, 30 min, 1 h, 2 h, 4 h, 6 h, 8 h, 10 h, 24 h, and 48 h after administration. The collected blood was centrifuged at 3500 rpm for 15 min. The supernatant plasma was then collected and cryopreserved at -40 °C for later analysis. The plasma concentration was quantitatively analyzed using the LC-MS/MS method, and pharmacokinetic parameters such as […] (Cmax), area under plasma concentration-time curve (AUC(0-t)), half-life (T1/2), clearance rate (CL), tissue distribution (Vdss), and bioavailability (F) were calculated. Table 18. Results of pharmacokinetic test of compounds in Balb/c mice"}, "[6]": {"assay": "Cerebrospinal fluid and plasma distribution in vivo", "conditions": "rat, male rats, intravenous 5 mg/kg, n = 1", "description": "Experimental procedures: The compound was weighed out, a small amount of DMSO was added, and then a sodium chloride solution for injection was added to prepare a 5 mg·mL^-1 compound solution for later administration. […] 10 µL of the plasma and 10 µL of the cerebrospinal fluid were each added to a centrifuge tube, and 40 µL of acetonitrile containing 20 ng·mL^-1 internal standard SAHA was added for precipitation. […] The supernatant was collected and transferred to a sample vial for later analysis. Range of standard curve: 1-1000 ng·mL^-1."}, "[7]": {"target": "T2, PARP6 (Homo sapiens, UniProt Q2NL67)", "T2 construct": "purchased BPS 80556", "T2 sequence (Q2NL67 whole entry)": "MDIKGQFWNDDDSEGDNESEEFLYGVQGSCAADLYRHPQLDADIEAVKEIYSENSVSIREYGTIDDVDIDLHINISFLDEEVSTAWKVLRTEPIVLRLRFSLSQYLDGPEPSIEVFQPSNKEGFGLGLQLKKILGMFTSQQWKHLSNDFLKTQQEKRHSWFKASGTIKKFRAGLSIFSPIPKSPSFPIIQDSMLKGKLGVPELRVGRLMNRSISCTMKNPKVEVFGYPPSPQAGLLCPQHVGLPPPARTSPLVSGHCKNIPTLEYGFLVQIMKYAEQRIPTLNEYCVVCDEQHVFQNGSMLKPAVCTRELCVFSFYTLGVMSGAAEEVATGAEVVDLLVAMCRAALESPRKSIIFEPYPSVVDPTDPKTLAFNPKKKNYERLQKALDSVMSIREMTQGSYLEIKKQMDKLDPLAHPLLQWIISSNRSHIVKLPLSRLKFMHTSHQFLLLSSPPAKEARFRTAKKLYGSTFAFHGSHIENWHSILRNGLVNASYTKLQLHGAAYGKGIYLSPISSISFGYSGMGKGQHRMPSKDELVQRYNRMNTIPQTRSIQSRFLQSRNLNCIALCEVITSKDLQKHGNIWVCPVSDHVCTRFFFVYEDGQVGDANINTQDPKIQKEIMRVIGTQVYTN", "assay": "Assay for selectivity for PARP6 (ELISA, chemiluminescence)", "type": "biochemical", "description": "Main instruments and reagents for PARP6 assay\nExperimental procedures: The enzymatic activity of PARP6 was assayed by the ELISA method. […] The IC50 values of the compounds were calculated using the nonlinear fitting formula in GraphPad software."}, "[8]": {"target": "T3, hERG potassium ion channel (Homo sapiens, UniProt Q12809)", "T3 construct": "expressed in transfected cells; host or cells: CHO cells", "T3 sequence (Q12809 whole entry)": "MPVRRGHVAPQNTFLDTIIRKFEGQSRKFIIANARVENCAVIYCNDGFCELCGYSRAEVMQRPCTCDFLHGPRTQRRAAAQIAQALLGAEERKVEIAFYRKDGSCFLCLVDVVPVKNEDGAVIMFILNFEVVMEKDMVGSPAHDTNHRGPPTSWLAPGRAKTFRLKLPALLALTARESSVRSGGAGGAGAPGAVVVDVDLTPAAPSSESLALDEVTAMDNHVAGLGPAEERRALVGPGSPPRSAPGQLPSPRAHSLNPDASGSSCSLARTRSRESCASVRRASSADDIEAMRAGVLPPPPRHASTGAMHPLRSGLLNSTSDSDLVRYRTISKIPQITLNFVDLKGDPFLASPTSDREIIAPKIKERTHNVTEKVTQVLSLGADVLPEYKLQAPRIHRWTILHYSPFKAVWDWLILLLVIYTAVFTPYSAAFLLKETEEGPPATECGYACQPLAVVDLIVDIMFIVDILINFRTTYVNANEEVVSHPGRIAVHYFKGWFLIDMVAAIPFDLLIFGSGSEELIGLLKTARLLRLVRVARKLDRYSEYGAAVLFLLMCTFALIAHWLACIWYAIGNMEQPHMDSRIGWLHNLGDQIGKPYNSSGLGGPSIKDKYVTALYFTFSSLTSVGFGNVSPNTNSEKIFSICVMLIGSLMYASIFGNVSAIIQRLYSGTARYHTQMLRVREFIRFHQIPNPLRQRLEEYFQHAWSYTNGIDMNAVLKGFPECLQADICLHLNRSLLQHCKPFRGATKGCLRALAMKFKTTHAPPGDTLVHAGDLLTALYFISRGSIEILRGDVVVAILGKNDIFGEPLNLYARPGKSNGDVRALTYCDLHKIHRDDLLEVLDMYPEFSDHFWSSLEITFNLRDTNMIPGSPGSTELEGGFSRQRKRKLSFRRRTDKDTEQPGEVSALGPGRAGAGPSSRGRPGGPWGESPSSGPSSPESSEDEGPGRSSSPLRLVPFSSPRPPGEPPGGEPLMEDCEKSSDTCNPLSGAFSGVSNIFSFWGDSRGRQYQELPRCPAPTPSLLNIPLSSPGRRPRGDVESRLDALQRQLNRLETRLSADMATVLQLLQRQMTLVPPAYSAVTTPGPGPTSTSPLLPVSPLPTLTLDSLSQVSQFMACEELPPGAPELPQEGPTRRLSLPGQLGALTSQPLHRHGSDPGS", "assay": "Inhibition of hERG potassium ion channel (Qpatch, CHO cells stably expressing hERG)", "type": "cell-based", "description": "Cell culture and treatment: CHO cells stably expressing hERG were cultured in a cell culture flask and incubated in an incubator with 5% CO2 at 37 °C. When the cell density reached 60%-80%, the cell culture medium was removed by pipetting. The cells were washed once with PBS, and then Detachin was added for detachment. After complete detachment, a culture medium was added for neutralization. The cells were then centrifuged, and the supernatant was removed by pipetting. A culture medium was further added for resuspension, and the cell density was adjusted to (2-5) × 10^6 cells/mL for later use.\nCompound preparation: The compound stock solution was diluted with 100% DMSO. Specifically, 10 µL of the compound stock solution was added to 20 µL of DMSO, followed by a 3-fold serial dilution to obtain 6 concentrations. 4 µL of each of the 6 compound solutions at different concentrations was taken and added to 396 µL of an extracellular fluid, resulting in a 100-fold dilution to obtain 6 intermediate concentrations. Then, 80 µL of each of the 6 intermediate-concentration compound solutions was taken and added to 320 µL of an extracellular fluid, resulting in a 5-fold dilution to achieve the final test concentrations. The highest test concentration was 40 µM. […] DMSO at this concentration has no effect on the hERG potassium channel. During the compound preparation, the entire dilution process was completed by a Bravo instrument.\nElectrophysiological recording process: The single-cell high-impedance sealing and whole-cell mode formation processes were all completed automatically by a Qpatch instrument. After achieving the whole-cell recording mode, the cells were clamped at -80 mV. Before a 5-second +40 mV depolarizing stimulus was applied, a 50-millisecond -50 mV prepulse voltage was first applied. The potential was then repolarized to -50 mV and held for 5 s, and finally returned to -80 mV. This voltage stimulation was applied every 15 s. After 2 min of recording, the extracellular fluid was administered, followed by recording for 5 min. Then, the compound administration process began, starting from the lowest test compound concentration. Each test concentration was applied for 2.5 min. After all the concentrations were applied consecutively, the positive control compound, 3 µM Cisapride, was administered. At least 3 cells (n ≥ 3) were tested for each concentration.\nData processing: Data analysis and processing were performed using GraphPad Prism 5.0 and Excel software. The IC50 of the compound was calculated using GraphPad Prism 5 software by equation fitting as follows: Y = Bottom + (Top−Bottom)/(1+10^(∧)((LogIC50−X)*HillSLope)) [formula] where X is the Log value of the test concentration of the test sample, Y is the inhibition percentage at the corresponding concentration, and Bottom and Top are the minimum and maximum inhibition percentages, respectively. Table 17. Results of inhibition of hERG potassium ion channel by compounds"}, "[9]": {"system": "CD34+ hematopoietic stem and progenitor cells (hmPB34-P-SC)", "assay": "Hematological toxicity assay (CellTiter-Glo 2.0)", "type": "cell-based", "conditions": "120 h; 5 days of culture", "description": "The next day, the cells were resuspended and seeded in a 96-well plate at a concentration of 1000 cells/well, and meanwhile, different concentrations of the drug were added for treatment, with 3 replicate wells set for each concentration. After 5 days of culture, the number of viable cells in each well was determined using a CellTiter-Glo 2.0 kit, followed by detection by a microplate reader."}, "[10]": {"system": "MDA-MB-436 breast cancer subcutaneous xenograft tumor model", "assay": "In vivo pharmacodynamic study of compound 2 in MDA-MB-436 subcutaneous xenograft tumor model", "conditions": "100 mg/kg, oral once daily, 30 days", "procedure": "Experimental process: Twenty-four female NOD/SCID mice were used in the experiment. […] All groups were subjected to oral administration once daily. Meanwhile, the mice were weighed every 2 days, and the length and width of the tumors were measured with a vernier caliper. After 30 days of administration, the tumor-bearing mice were anesthetized and sacrificed. The tumor tissues were dissected, weighed, and photographed, and the tumor growth inhibition rates were calculated."}, "[11]": {"conditions": "cerebrospinal fluid, read-out: Cerebrospinal fluid"}}, "note": "Like-named read-outs stand apart in the source and are kept apart here.", "data": [{"smiles": "CNC(=O)c1ccc(N2CCN(Cc3ccc4nc(C)c(=O)[nH]c4c3F)CC2)c(F)n1", "note": "[AZD9574, reference compound]", "values": [{"measurement": "inhibitory effects on tumor growth (in words)", "setting": "[1]; 3 mg/kg", "result": "significant inhibitory effects on tumor growth"}]}, {"smiles": "CCc1nc2c([nH]c1=O)C[C@@H](CN1CC=C(c3ccc(C(=O)NC)nc3F)CC1)CC2", "note": "[Example 53, (S)-1'-((2-Ethyl-3-oxo-3,4,5,6,7,8-hexahydroquinoxalin-6-yl)methyl)-2-fluoro-N-methyl-1',2', 3',6'-tetrahydro-[3,4'-bipyridine]-6-carboxamide]", "values": [{"measurement": "IC50", "setting": "[2]", "result": "≤ 50", "unit": "nM"}, {"measurement": "IC50", "setting": "[3]", "result": 1.5, "unit": "nM"}, {"measurement": "IC50", "setting": "[4]", "result": "> 1000", "unit": "nM"}, {"measurement": "CL", "setting": "[5]", "result": 0.04, "unit": "L/h/kg"}, {"measurement": "Vdss", "setting": "[5]", "result": 0.42, "unit": "L/kg"}, {"measurement": "AUC(0-t)", "setting": "[5]", "result": 22300, "unit": "ng·h/mL"}, {"measurement": "Cmax", "setting": "[5]", "result": 3650, "unit": "ng/mL"}, {"measurement": "half-life", "setting": "[5]", "result": 426, "unit": "min"}, {"measurement": "anti-tumor effect compared with the AZD9574 (3 mg/kg) group (in words)", "setting": "[1]; 1 mg/kg", "result": "superior"}, {"measurement": "inhibitory effects on tumor growth (in words)", "setting": "[1]; 1 mg/kg", "result": "significant inhibitory effects on tumor growth"}]}, {"smiles": "CNC(=O)c1ccc(N2CCN(CC3Cc4[nH]c(=O)c(C(F)F)cc4CO3)CC2)c(F)n1", "note": "(stereo not drawn) [Example 43, 5-(4-((3-(Difluoromethyl)-2-oxo-1,5,7,8-tetrahydro-2H-pyrano[4,3-b]pyridin-7-yl)methyl)piperazin-1-yl)-6-fluoro-N-methylpicolinamide]", "values": [{"measurement": "IC50", "setting": "[2]", "result": "50 to 500", "unit": "nM"}, {"measurement": "concentration at 0.25 h", "setting": "[6]; [11]", "result": 16, "unit": "ng/g"}, {"measurement": "concentration at 2 h", "setting": "[6]; [11]", "result": 3, "unit": "ng/g"}, {"measurement": "concentration at 0.25 h", "setting": "[6]; plasma, read-out: Plasma", "result": 8030, "unit": "ng/mL"}, {"measurement": "concentration at 2 h", "setting": "[6]; plasma, read-out: Plasma", "result": 7690, "unit": "ng/mL"}, {"measurement": "IC50", "setting": "[7]", "result": "> 10", "unit": "µM"}, {"measurement": "inhibitory effects on PARP6 (in words)", "setting": "[7]; conclusion of Table 21", "result": "Conclusion: Compounds 2, 43, etc., of the present disclosure exhibited relatively weak inhibitory effects on PARP6, demonstrating high selectivity."}]}, {"smiles": "C=Cc1cc2c([nH]c1=O)CC(CN1CCN(c3ccc(C(=O)NC)nc3F)CC1)OC2", "note": "(stereo not drawn) [Example 67, 6-Fluoro-N-methyl-5-(4-((2-oxo-3-vinyl-1,5,7,8-tetrahydro-2H-pyrano[4,3-b]pyridin-7-yl)methyl)piperazin-1-yl)picolinamide]", "values": [{"measurement": "IC50", "setting": "[2]", "result": "≤ 50", "unit": "nM"}, {"measurement": "IC50", "setting": "[4]", "result": "> 1000", "unit": "nM"}, {"measurement": "inhibitory effects on the hERG potassium ion channel (in words)", "setting": "[8]; conclusion of Table 17", "result": "Conclusion: Compounds 2, 6, 45, 62, 67, 74, 83, 87, etc., of the present disclosure exhibited relatively weak inhibitory effects on the hERG potassium ion channel."}, {"measurement": "inhibition at 2.5 min, 20 µM", "setting": "[8]; human, 20 µM, CHO cells stably expressing hERG, read-out: Inhibition rate at 20 µM", "result": 4.18, "unit": "%"}, {"measurement": "IC50", "setting": "[9]", "result": "> 1000", "unit": "nM"}]}, {"smiles": "CNC(=O)c1ccc(C2=CCN(CC3Cc4[nH]c(=O)c(C5CC5)cc4CO3)CC2)c(F)n1", "note": "(stereo not drawn) [Example 51, 1'-((3-Cyclopropyl-2-oxo-1,5,7,8-tetrahydro-2H-pyrano[4,3-b]pyridin-7-yl)methyl)-2-fluoro-N-methyl-1',2',3',6'-tetrahydro-[3,4'-bipyridine]-6-carboxamide]", "values": [{"measurement": "IC50", "setting": "[2]", "result": "50 to 500", "unit": "nM"}, {"measurement": "IC50", "setting": "[3]", "result": 160, "unit": "nM"}, {"measurement": "IC50", "setting": "[4]", "result": "> 1000", "unit": "nM"}, {"measurement": "CL", "setting": "[5]", "result": 0.01, "unit": "L/h/kg"}, {"measurement": "Vdss", "setting": "[5]", "result": 0.04, "unit": "L/kg"}, {"measurement": "AUC(0-t)", "setting": "[5]", "result": 96800, "unit": "ng·h/mL"}, {"measurement": "Cmax", "setting": "[5]", "result": 6280, "unit": "ng/mL"}, {"measurement": "half-life", "setting": "[5]", "result": 953, "unit": "min"}, {"measurement": "concentration at 0.25 h", "setting": "[6]; [11]", "result": 53, "unit": "ng/g"}, {"measurement": "concentration at 2 h", "setting": "[6]; [11]", "result": 25, "unit": "ng/g"}, {"measurement": "concentration at 0.25 h", "setting": "[6]; plasma, read-out: Plasma", "result": 41900, "unit": "ng/mL"}, {"measurement": "concentration at 2 h", "setting": "[6]; plasma, read-out: Plasma", "result": 21700, "unit": "ng/mL"}, {"measurement": "IC50", "setting": "[9]", "result": "> 1000", "unit": "nM"}]}, {"smiles": "O=C(c1cc(Cc2n[nH]c(=O)c3ccccc23)ccc1F)N1CCN(C(=O)C2CC2)CC1", "note": "[Olaparib, reference compound]", "values": [{"measurement": "IC50", "setting": "[9]", "result": 200, "unit": "nM"}, {"measurement": "tumor growth inhibition rate", "setting": "[10]", "result": 65.81, "unit": "%"}]}, {"smiles": "CCc1cc2ncc(CN3CCN(c4ccc(C(=O)NC)nc4)CC3)cc2[nH]c1=O", "note": "[AZD5305, reference compound]", "values": [{"measurement": "IC50", "setting": "[7]", "result": 8.19, "unit": "µM"}]}]}
